# Measured values: patent publication EP1278521B1, “N-HETEROCYCLIC SUBSTITUTED SALICYLATES FOR THE TREATMENT OF CANCER” (priority 2000, dated 2001)
# Entries after “also recorded” stand apart in the source; their conditions may differ. Read-outs that look alike come from different tables or passages of the source.
# Legend:
# [1] = tested on: Nb2-SFJCD1 rat lymphoma cells; experiment: Culture growth inhibition assay in Nb2-SFJCD1 cultures; format: cell-based; details: for IC50: read-out: IC50 (mM) Average ± S.D.; for growth-inhibitory effect in the presence of elevated cystine: cystine at ca. 3-fold elevated levels in the culture medium, Fig. 5
# Method: Solubilization of salicylhydroxamic acid and sulfasalazine involved use of 0.1 N NaOH and adjustment of the pH to 7.5-7.7 using 1 N HCl, which was added slowly to the solution swirled by a magnetic stirrer. […] All drugs were obtained from Sigma-Aldrich Canada Ltd., Oakville, ON, Canada. Drug solutions and vehicles (controls) were prepared and assayed under subdued light conditions.
# (§1) Nb2 lymphoma is of a pre-T cell origin. The parental line (Nb2 U17) is non-metastatic as subcutaneous implants whereas subline Nb2-SFJCD1 is highly metastatic. Nb2-SFJCD1 cultures (doubling time = 12 - 13 hr) were maintained in Fischer's medium (Sigma-Aldrich), supplemented with 10.0 % horse gelding serum (lactogen-deficient; one batch, ICN Biomedicals, Inc., Auroro, OH), penicillin (50 U/ml) and streptomycin (50 µg/ml). In this medium the cells grow as clumps which can be readily dispersed. Nb2 lymphoma cell lines are used by a number of laboratories; the Nb2-11 subline, is available from the European Collection of Animal Cell Cultures (ECACC) in Salisbury, U.K. The Nb2-U17 and Nb2-SJFCD1 cell lines are available from Dr. Peter W. Gout, B.C. Cancer Research Centre, Vancouver, B.C., Canada.
# Nb2-SFTCD1 cells from log phase cultures were centrifaged (3.5 min at 350xg) and gently resuspended in fresh Fisher's medium containing 10% horse gelding serum. Aliquots (1.80 ml) were distributed in 12-well tissue culture plates (Linbro, Flow Laboratories, Mississauga, ON, Canada) and preincubated for 3 - 5 hours at 37°C in a water-saturated 5% CO2/air atmosphere. Solutions of the drugs (200 µl portions) were then added to the cultures for a 45 hour incubation (Cin = 1.0x10^5 cells/ml). Cell populations were determined using an electronic counter (Coulter Electronics, Hialeah, FL).
# [2] = cited from earlier work
# Nb2-U17 tumor transplant = experiment: Assay of tumor growth inhibition in rats; format: in vivo, Nb rats; details: b.i.d., 7-day period
# Method: (§2) A colony of Nb rats is maintained in the British Columbia Cancer Research Centre Vancouver, B.C., Canada. Approximately equal portions of minced Nb2-U17 tumor tissue, developed subcutaneously in a rat following injection of cultured Nb2-U17 cells, were injected by trocar subcutaneously in the nape of the neck of groups of male Nb rats (one injection per rat), that had been lightly anesthetized with isoflurane (Abbott Laboratories Ltd., Montreal, Canada). […] 2 % CMC or saline were used for controls. Drug preparation and administration were carried out under subdued light conditions. Food and water were provided ad libitum. Tumor size, body weight and general health of the rats were monitored twice a day. Tumor size was measured using calipers and expressed in grams using the formula: π/6 x length x width x height in cm. […] On necropsy the animals were examined for evidence of metastatic spread with particular attention to tissues such as kidneys, liver and spleen, the target tissues of metastatic Nb2 lymphoma cells. Tissue sections were taken for histologic analysis. Non-tumor-bearing animals were used to establish maximally tolerated dosages.
# MDA-MB-231 cells = experiment: Cell proliferation of MDA-MB-231 breast carcinoma cells; format: cell-based, human
# Excerpt: (§3) The effect of sulfasalazine on cell proliferation was subsequently assessed. […] Thus, the xc^- transporter is a target for the anti-cancer actions of sulfasalazine in human breast carcinoma.
# DoHH2 cells = experiment: Culture growth inhibition assay using DoHH2 cells; format: cell-based, human; details: 1.5% FBS, 0.05 mM, at hr 45, Fig. 4
# Method: as §1, with “Canada. DoHH2 cell suspension cultures (doubling time ca. 20 hours) were maintained in RPMI-1640 medium (Stem Cell Technology, Vancouver, B.C., Canada) containing fetal bovine serum (5%), horse serum (5%) and antibiotics.” for “Canada.”
# Assays using DoHH2 cells were similarly performed, using their maintenance medium; Cin = ca. 1.5x10^5 cells/ml (see: Kluin-Nelemans, H.C. et al. (1991) Leukemia 5:221.)
# [3] = rat, in vivo
# Method: as §2
# MCF-7 cells = experiment: Cell proliferation of MCF-7 breast carcinoma cells; format: cell-based, human; details: 10 mM
# Excerpt: as §3
# [4] = as reported in the literature for patients/controls undergoing treatment with the drugs
# [5] = Rattus norvegicus, 45 h at 37°C, Fischer's medium containing 10.0% horse gelding serum
smiles,measurement,setting,value
"O=C([O-])c1ccccc1O.[Na+] [Salicylate, sodium, sodium salicylate]",IC50,"[1]; Rattus norvegicus, 45 h",1.82 ± 0.12 mM
same,inhibition at 3000 µM,"[1]; Rattus norvegicus, read-out: inhibited the growth of the Nb2 cell cultures",~70%
same,growth-inhibitory effect in the presence of elevated cystine,[1],only marginally affected
same,Therapeutic drug levels in plasma,[2]; [4],1 to 3 mM
same,tumor growth inhibition,"Nb2-U17 tumor transplant; i.p. 150 mg/kg body wt, 150 mg/kg",did not inhibit tumor growth; also recorded: had no effect
CC(C)Cc1ccc(C(C)C(=O)O)cc1 (stereo not drawn) [Ibuprofen],inhibition at 100 µM,"[1]; Rattus norvegicus, 0.1 mM (therapeutic concentration), Fig. 1, read-out: inhibited the growth of the Nb2 cell cultures",5 to 10%
same,IC50,[1]; [5],0.43 ± 0.01 mM
same,Therapeutic drug levels in plasma,[2]; in vivo,0.05 to 0.1 mM
O=C(O)c1cc(/N=N/c2ccc(S(=O)(=O)Nc3ccccn3)cc2)ccc1O [Sulfasalazine],growth arrest,"[1]; 0.15 mM, 45 hour experiment",only partially arrested growth
same,IC50,[1]; [5],~0.17 mM
same,growth-inhibitory effect in the presence of elevated cystine,[1],substantially reduced
same,growth-inhibitory activity,"[1]; range 0.1 - 0.3 mM, Fig. 2",highly potent
same,antagonism of the inhibitory actions by 2-ME,MDA-MB-231 cells; 2-ME (60µM),completely antagonized
same,IC50,"MDA-MB-231 cells; Homo sapiens, MDA-MB-231",300 ± 5 µM
same,Therapeutic drug levels in plasma,[2]; [4],0.08 to 0.2 mM
same,cell lysis,DoHH2 cells,extensive cell lysis
same,side effects (general health and appearance),[3],no major side effects
same,minor side effect,[3]; ip,thickening of tissue at the site of the injections
same,lymphoma growth-inhibitory effect,"Nb2-U17 tumor transplant; oral administration, 500 mg/kg body wt",only minor lymphoma growth-inhibitory effect
Nc1ccc(S(=O)(=O)Nc2ccccn2)cc1 [sulfapyridine],Therapeutic drug levels in plasma,[2]; [4],0.08 to 0.2 mM
N[C@@H](CCC(=O)O)C(=O)[O-].[Na+] [Monosodium glutamate],inhibition of proliferation,MCF-7 cells,to an extent similar to that observed for sulfasalazine
same,inhibition of proliferation with addition of 2-ME,MCF-7 cells; 2-ME added to the cultures,completely negated this effect
NC(=O)c1ccccc1O [Salicylamide],IC50,[1]; [5],1.34 ± 0.13 mM
Nc1ccc(O)c(C(=O)O)c1 [5-aminosalicylic acid],Therapeutic drug levels in plasma,[2]; [4],ca. 0.01 mM
CN1C(C(=O)Nc2ccccn2)=C(O)c2ccccc2S1(=O)=O [Piroxicam],inhibition at 30 µM,"[1]; Rattus norvegicus, 0.03 mM (therapeutic concentration), Fig. 1, read-out: inhibited the growth of the Nb2 cell cultures",5 to 10%
same,IC50,[1]; [5],0.3 ± 0.02 mM
same,Therapeutic drug levels in plasma,[2]; in vivo,0.015 to 0.03 mM
